Experimental data reported in the NIST ThermoML archive (doi:10.1021/je049940f).
Numbers after ± are expanded uncertainties.

Experiments:
[1] = wn = mass fraction of the nth substance listed; settings: Liquid
[2] = xn = mol fraction of the nth substance listed; settings: 10000 kPa, Liquid

[Cl-].[Na+] [sodium chloride] + O gave a viscosity ([1]; 303.15 K, 10000 kPa, w1 = 0.03) of 0.84 ± 0.05 mPa·s, a viscosity ([1]; 303.15 K, 20000 kPa, w1 = 0.03) of 0.83 ± 0.05 mPa·s and a viscosity ([1]; 313.15 K, 10000 kPa, w1 = 0.03) of 0.68 ± 0.04 mPa·s. It also gave a viscosity ([1]; 313.15 K, 20000 kPa, w1 = 0.03) of 0.69 ± 0.04 mPa·s, a viscosity ([1]; 323.15 K, 10000 kPa, w1 = 0.03) of 0.59 ± 0.04 mPa·s and a viscosity ([1]; 323.15 K, 20000 kPa, w1 = 0.03) of 0.59 ± 0.04 mPa·s. The viscosity ([1]; 333.15 K, 10000 kPa, w1 = 0.03) was 0.49 ± 0.04 mPa·s and the viscosity ([1]; 333.15 K, 20000 kPa, w1 = 0.03) was 0.5 ± 0.04 mPa·s.
In the case of O [water] + [Cl-].[Na+], the viscosity ([1]; 303.15 K, 10000 kPa, w2 = 0) is reported as 0.8 ± 0.05 mPa·s, the viscosity ([1]; 313.15 K, 10000 kPa, w2 = 0) is reported as 0.66 ± 0.04 mPa·s and the viscosity ([1]; 323.15 K, 10000 kPa, w2 = 0) is reported as 0.56 ± 0.04 mPa·s. For the same compound, the viscosity ([1]; 333.15 K, 10000 kPa, w2 = 0) was 0.47 ± 0.04 mPa·s.
Compound O=C=O [carbon dioxide] + O has a viscosity ([2]; 303.15 K, x1 = 0.0073) of 0.81 ± 0.05 mPa·s, a viscosity ([2]; 303.15 K, x1 = 0.0148) of 0.86 ± 0.05 mPa·s and a viscosity ([2]; 303.15 K, x1 = 0.0238) of 0.89 ± 0.06 mPa·s. It also gave a viscosity ([2]; 313.15 K, x1 = 0.0107) of 0.68 ± 0.04 mPa·s and a viscosity ([2]; 313.15 K, x1 = 0.0207) of 0.7 ± 0.06 mPa·s.
